Measured values taken from patent US9212130B2, “Heterocyclic derivative and pharmaceutical composition comprising the same” (SHIONOGI & CO., LTD., priority 2010, dated 2015).

Key:
CYP3A4 [1] = target: T1, CYP3A4 (Homo sapiens (Human), UniProt P08684); assay: CYP3A4 fluorescent MBI test; type: in vitro ADME; conditions: pre-reaction time 0 or 30 minutes; substrate 7-BFC; CYP3A4 expressed in Escherichia coli
Experimental: The CYP3A4 fluorescent MBI test is a test of investigating enhancement of CYP3A4 inhibition of a compound by a metabolism reaction, and the test is performed using, as CYP3A4 enzyme expressed in Escherichia coli and employing, as an index, a reaction in which 7-benzyloxytrifluoromethylchmarin (BFC) is debenzylated by the CYP3A4 enzyme to produce a metabolite, 7-hydroxytrifluoromethylchmarin (HFC) emitting fluorescent light.
The reaction conditions were as follows: substrate, 5.6 μmol/L 7-BFC; pre-reaction time, 0 or 30 minutes; reaction time, 15 minutes; reaction temperature, 25° C.
An enzyme in a K-Pi buffer (pH 7.4) and a test drug solution as a pre-reaction solution were added to a 96-well plate at the composition of the pre-reaction, a part of it was transferred to another 96-well plate so that it was 1/10 diluted by a substrate in a K-Pi buffer, NADPH as a co-factor was added to initiate a reaction as an index (without preincubation) and, after a predetermined time of a reaction, acetonitrile: 0.5 mol/L Tris (trishydroxyaminomethane)=4:1 was added to stop the reaction. In addition, NADPH was added to a remaining preincubation solution to initiate a preincubation (with preincubation) and, after a predetermined time of a preincubation, a part was transferred to another plate so that it was 1/10 diluted with a substrate and a K-Pi buffer to initiate a reaction as an index, After a predetermined time of a reaction, acetonitrile: 0.5 mol/L Tris (trishydroxyaminomethane)=4:1 was added to stop the reaction. For the plate on which each index reaction had been performed, a fluorescent value of 7-HFC which is a metabolite was measured with a fluorescent plate reader. (Ex=420 nm, Em=535 nm).
Addition of only DMSO which is a solvent dissolving a drug to a reaction system was adopted as a control (100%), remaining activity (%) was calculated at each concentration of a test drug added as the solution, and IC50 was calculated by reverse-presumption by a logistic model using a concentration and an inhibition rate. When a difference between IC50 values is 5 or more, this was defined as (+) and, when the difference is 3 μmol/L or less, this was defined as (−).

CYP3A4 [2] = target: T1, CYP3A4; assay: CYP inhibition test, terfenedine hydroxylation; type: in vitro ADME; conditions: pooled human hepatic microsome; 1 μmol/L terfenedine; given as 'five kinds'
Experimental: Using commercially available pooled human hepatic microsome, and employing, as markers, 7-ethoxyresorufin O-deethylation (CYP1A2), tolbutamide methyl-hydroxylation (CYP2C9), mephenyloin 4′-hydroxylation (CYP2C19), dextromethorphan O-demethylation (CYP2D6), and terfenedine hydroxylation as typical substrate metabolism reactions of human main five ([…] enzyme forms (CYP1A2, 2C9, 2C19, 2D6, 3A4), an inhibitory degree of each metabolite production amount by a test compound was assessed.
The reaction conditions were as follows: substrate, 0.5 μmol/L ethoxyresorufin (CYP1A2), 100 μmol/L tolbutamide (CYP2C9), 50 μmol/L S-mephenitoin (CYP2C19), 5 μmol/L dextromethorphan (CYP2D6), 1 μmol/L terfenedine (CYP3A4); reaction time, 15 minutes; reaction temperature, 37° C.; enzyme, pooled human hepatic microsome 0.2 mg protein/mL; test drug concentration, 1.0. 5.0, 10, 20 μmol/L (four points).
Each five kinds of substrates, human hepatic microsome, or a test drug in 50 mmol/L Hepes buffer as a reaction solution was added to a 96-well plate at the composition as described above. NADPH, as a cofactor was added to initiate metabolism reactions as markers and, after the incubation at 37° C. for 15 minutes, a methanol/acetonitrile=1/1 (v/v) solution was added to stop the reaction. After the centrifugation at 3000 rpm for 15 minutes, resorufin (CYP1A2 metabolite) in the supernatant was quantified by a fluorescent multilabel counter and tributamide hydroxide (CYP2CP metabolite), mephenyloin 4′ hydroxide (CYP2C19 metabolite), […], and terfenadine alcohol (CYP3A4 metabolite) were quantified by LC/MS/MS.
Addition of only DMSO being a solvent dissolving a drug to a reaction system was adopted as a control (100%), remaining activity (%) was calculated at each concentration of a test drug added as the solution and IC50 was calculated by reverse presumption by a logistic model using a concentration and an inhibition rate.

T1 sequence (P08684 whole entry): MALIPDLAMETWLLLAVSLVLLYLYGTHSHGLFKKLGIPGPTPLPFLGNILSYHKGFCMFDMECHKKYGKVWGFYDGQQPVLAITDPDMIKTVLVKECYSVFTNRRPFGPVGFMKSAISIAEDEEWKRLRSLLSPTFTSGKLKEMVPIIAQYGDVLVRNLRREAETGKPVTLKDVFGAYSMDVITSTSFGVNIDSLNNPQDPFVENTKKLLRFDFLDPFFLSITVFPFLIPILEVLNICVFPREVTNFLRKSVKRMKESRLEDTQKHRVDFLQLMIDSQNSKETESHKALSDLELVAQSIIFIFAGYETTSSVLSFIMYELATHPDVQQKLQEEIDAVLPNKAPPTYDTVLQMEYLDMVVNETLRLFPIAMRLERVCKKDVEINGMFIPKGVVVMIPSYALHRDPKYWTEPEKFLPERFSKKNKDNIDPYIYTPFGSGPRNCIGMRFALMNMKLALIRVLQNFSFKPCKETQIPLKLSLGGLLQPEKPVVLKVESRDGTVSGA

CC(C)Oc1ccc(Nc2cc(=O)n(C[C@H](C)C(=O)O)c(=O)n2Cc2ccc(Cl)cc2)cc1Cl [I-100]
IC50 difference (CYP3A4 [1]): < 3 µM | IC50 (CYP3A4 [2]): > 20 µM
